Experiment in all cases: stopped-flow CO2 hydrase assay
What all share (assay type): biochemical

Test [1] has as its target T1, hCA XII (Homo sapiens, UniProt O43570).
T1 construct: gene CA12; recombinant, obtained in-house as reported earlier
The text has this:
stopped-flow CO2 hydrase assay on hCA XII

The target of test [2] is T2, hCA II (Homo sapiens, UniProt P00918).
T2 construct: gene CA2; recombinant, obtained in-house as reported earlier
The text has this: stopped-flow CO2 hydrase assay on hCA II

Test [3] deals with T3, hCA I (Homo sapiens, UniProt P00915).
T3 construct: gene CA1; recombinant, obtained in-house as reported earlier
T3 sequence (P00915 2-261): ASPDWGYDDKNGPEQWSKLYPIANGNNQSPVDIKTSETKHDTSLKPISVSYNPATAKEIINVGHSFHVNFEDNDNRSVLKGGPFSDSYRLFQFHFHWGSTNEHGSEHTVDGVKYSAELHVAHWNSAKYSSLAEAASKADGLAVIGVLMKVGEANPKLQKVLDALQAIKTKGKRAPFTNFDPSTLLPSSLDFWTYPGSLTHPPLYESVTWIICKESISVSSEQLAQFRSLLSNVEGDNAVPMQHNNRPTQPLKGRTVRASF
The source says: stopped-flow CO2 hydrase assay on hCA I

For test [4], the target named is T4, hCA IX (Homo sapiens, UniProt Q16790).
T4 construct: gene CA9; recombinant, obtained in-house as reported earlier
The text has this:
stopped-flow CO2 hydrase assay on hCA IX

Setting [5] is: pH […] Hepes […], […] Na2SO4, CO2 substrate, […] min preincubation at room temperature.

The structures appear in SMILES notation. Like-named read-outs stand apart in the source and are kept apart here.

T1 sequence (O43570 25-354): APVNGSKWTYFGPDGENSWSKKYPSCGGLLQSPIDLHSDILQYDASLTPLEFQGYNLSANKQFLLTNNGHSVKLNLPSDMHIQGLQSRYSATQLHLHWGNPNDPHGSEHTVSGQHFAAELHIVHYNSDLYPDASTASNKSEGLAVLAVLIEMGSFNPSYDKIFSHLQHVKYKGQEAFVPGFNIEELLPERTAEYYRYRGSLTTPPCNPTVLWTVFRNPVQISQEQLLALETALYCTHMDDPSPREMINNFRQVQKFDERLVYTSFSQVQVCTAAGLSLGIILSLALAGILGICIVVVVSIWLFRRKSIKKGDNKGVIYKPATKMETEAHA

Consider `COc1ccc(/C=C/C(=O)/C=C/c2ccc(S(N)(=O)=O)cc2)c(OC)c1OC` [5f, 4-((1E,4E)-3-oxo-5-(2,3,4-trimethoxyphenyl)penta-1,4-dien-1-yl)benzenesulfonamide], for which the Ki (usually a measure of affinity in units of concentration, obtained from inhibition or displacement) in test [1] is 71.8 nM; in test [2], 3 nM; in test [3] (setting [5]), 192 nM; in test [4], 2.4 nM.

For `COc1ccc(/C=C/C(=O)/C=C/c2ccc(S(N)(=O)=O)cc2)cc1OC` [5e, 4-((1E,4E)-5-(3,4-dimethoxyphenyl)-3-oxopenta-1,4-dien-1-yl)benzenesulfonamide], the Ki came to 52.2 nM in test [1], 0.75 nM in test [2] (setting [5]), 295 nM in test [3] and 2.3 nM in test [4].

`COc1cc(/C=C/C(=O)/C=C/c2ccc(S(N)(=O)=O)cc2)cc(OC)c1OC` [5h, 4-((1E,4E)-3-oxo-5-(3,4,5-trimethoxyphenyl)penta-1,4-dien-1-yl)benzenesulfonamide]: the Ki in test [1] is 25 nM; in test [2], 8.8 nM; in test [3], 595 nM; in test [4] it was 7.8 nM.

Regarding `COc1ccc(OC)c(/C=C/C(=O)/C=C/c2ccc(S(N)(=O)=O)cc2)c1` [5d, 4-((1E,4E)-5-(2,5-dimethoxyphenyl)-3-oxopenta-1,4-dien-1-yl)benzenesulfonamide], the inhibition constant Ki is 8.1 nM in test [1], 0.89 nM in test [2] (setting [5]), 704 nM in test [3] and 8.4 nM in test [4].

Turning to `COc1ccc(/C=C/C(=O)/C=C/c2ccc(S(N)(=O)=O)cc2)cc1` [5b, 4-((1E,4E)-5-(4-methoxyphenyl)-3-oxopenta-1,4-dien-1-yl)benzenesulfonamide], the inhibition constant Ki was determined as 6.3 nM in test [1], 2.1 nM in test [2], 286 nM in test [3] and 8.6 nM in test [4].

Take `COc1ccc(/C=C/C(=O)/C=C/c2ccc(S(N)(=O)=O)cc2)c(OC)c1` [5c, 4-((1E,4E)-5-(2,4-dimethoxyphenyl)-3-oxopenta-1,4-dien-1-yl)benzenesulfonamide]: the Ki in test [1] worked out at 7.4 nM; in test [2], 4.7 nM; in test [3], 848 nM; in test [4] it was 7.5 nM.

With `COc1cc(OC)c(/C=C/C(=O)/C=C/c2ccc(S(N)(=O)=O)cc2)c(OC)c1` [5g, 4-((1E,4E)-3-oxo-5-(2,4,6-trimethoxyphenyl)penta-1,4-dien-1-yl)benzenesulfonamide], the Ki is 7.4 nM in test [1], 0.87 nM in test [2], 904 nM in test [3] and 2.4 nM in test [4].

As for `NS(=O)(=O)c1ccc(/C=C/C(=O)/C=C/c2ccc(Cl)cc2)cc1` [5i, 4-((1E,4E)-5-(4-chlorophenyl)-3-oxopenta-1,4-dien-1-yl)benzenesulfonamide], the Ki worked out at 31.1 nM in test [1], 8.1 nM in test [2], 373 nM in test [3] and 87.3 nM in test [4].

Regarding `CC(C)Oc1ccc(/C=C/C(=O)/C=C/c2ccc(S(N)(=O)=O)cc2)cc1` [5a, 4-((1E,4E)-5-(4-isopropoxyphenyl)-3-oxopenta-1,4-dien-1-yl)benzenesulfonamide], the Ki worked out at 6.1 nM in test [1], 7.9 nM in test [2], 417 nM in test [3] and 2.3 nM in test [4].

As to `COc1ccc(/C=C/C(=O)/C=C/c2ccc(S(N)(=O)=O)cc2)c(F)c1` [5j, 4-((1E,4E)-5-(2-fluoro-4-methoxyphenyl)-3-oxopenta-1,4-dien-1-yl)benzenesulfonamide], the inhibition constant (Ki) in test [1] is 68 nM; in test [2] it was 8.2 nM; in test [3], 246 nM; in test [4], 61 nM.

These data come from PMC6010064, “Discovery of curcumin inspired sulfonamide derivatives as a new class of carbonic anhydrase isoforms I, II, IX, and XII inhibitors” (Journal of Enzyme Inhibition and Medicinal Chemistry, 2017).
